Structures are written as SMILES. A value given as a limit tells only on which side of the number the result lay.

In this assay the target is T1, GCS (Canis lupus familiaris, UniProt A0A8I3MXG6).
T1 sequence (A0A8I3MXG6 1-394): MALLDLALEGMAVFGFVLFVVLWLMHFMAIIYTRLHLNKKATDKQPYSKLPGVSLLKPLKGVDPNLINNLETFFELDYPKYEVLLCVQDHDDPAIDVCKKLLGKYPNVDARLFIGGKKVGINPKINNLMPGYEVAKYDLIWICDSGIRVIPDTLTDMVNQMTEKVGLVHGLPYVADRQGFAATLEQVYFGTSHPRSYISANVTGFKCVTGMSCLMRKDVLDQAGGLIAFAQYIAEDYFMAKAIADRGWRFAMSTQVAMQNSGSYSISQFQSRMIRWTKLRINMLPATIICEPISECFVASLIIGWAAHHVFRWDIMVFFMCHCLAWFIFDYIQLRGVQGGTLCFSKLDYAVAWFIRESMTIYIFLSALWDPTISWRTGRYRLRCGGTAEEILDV
Description: Assay 1: GCS Enzymatic Assay (MDCK cell lysate, C6-NBD-Ceramide, LC/MS). It is filed as biochemical, canine. To be noted: Table 2; data without asterisk; read-out: IC50 (nM) generated from Assay 1. The essentials:
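LC/MS/MS measurement of glucosylceramide and NBD-ceramide after a 1 h, 37 °C reaction with 100 μM UDP-glucose and 10 μM C6-NBD-ceramide gave IC50s or percent inhibition.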
On to `CC(C)n1ncc2cc(C(=O)C(=O)N[C@H](CN3CCCC3)[C@H](O)c3ccc(OC4CC4)c(Cl)c3)ccc21` [Example 321, N-((1R,2R)-1-(3-chloro-4-cyclopropoxyphenyl)-1-hydroxy-3-(pyrrolidin-1-yl)propan-2-yl)-2-(1-isopropyl-1H-indazol-5-yl)-2-oxoacetamide], for which the IC50 was under 50 nM. Next, `Cc1nn(C)c2ccc(-c3ccc(C(=O)C(=O)N[C@H](CN4CCCC4)[C@H](O)c4cc(F)c5c(c4)OCCO5)cc3)cc12` [Example 322, 2-(4-(1,3-dimethyl-1H-indazol-5-yl)phenyl)-N-((1R,2R)-1-(8-fluoro-2,3-dihydrobenzo[b][1,4]dioxin-6-yl)-1-hydroxy-3-(pyrrolidin-1-yl)propan-2-yl)-2-oxoacetamide]: under 50 nM; `CC(C)n1ccc2cc(C(=O)C(=O)N[C@H](CN3CCCC3)[C@H](O)c3cc(F)c4c(c3)OCCO4)ccc21` [Example 323, N-((1R,2R)-1-(8-fluoro-2,3-dihydrobenzo[b][1,4]dioxin-6-yl)-1-hydroxy-3-(pyrrolidin-1-yl)propan-2-yl)-2-(1-isopropyl-1H-indo1-5-yl)-2-oxoacetamide]: under 50 nM; `CC(C)n1ccc2cc(C(=O)C(=O)N[C@H](CN3CCCC3)[C@H](O)c3ccc(OC4CC4)c(Cl)c3)ccc21` [Example 324, N-((1R,2R)-1-(3-chloro-4-cyclopropoxyphenyl)-1-hydroxy-3-(pyrrolidin-1-yl)propan-2-yl)-2-(1-isopropyl-1H-indo1-5-yl)-2-oxoacetamide]: under 50 nM. With `O=C(N[C@H](CN1CCCC1)[C@H](O)c1cc(F)c2c(c1)OCCO2)C(=O)c1ccc(N2CCOCC2)cc1` [Example 325, N-((1R,2R)-1-(8-fluoro-2,3-dihydrobenzo[b][1,4]dioxin-6-yl)-1-hydroxy-3-(pyrrolidin-1-yl)propan-2-yl)-2-(4-morpholinophenyl)-2-oxoacetamide], the IC50 is under 50 nM.

With `O=C(N[C@@H](Cc1ccc(OC2CC2)c(Cl)c1)CN1CCCC1)C(=O)c1ccc(-c2ccc(F)cc2)cc1` [Example 326, (S)-N-(1-(3-chloro-4-cyclopropoxyphenyl)-3-(pyrrolidin-1-yl)propan-2-yl)-2-(4′-fluoro-[1,1′-biphenyl]-4-yl)-2-oxoacetamide], the concentration for half-maximal inhibition (IC50) lay within 50 to 5000 nM.

Regarding `O=C(N[C@H](CN1CCC1)[C@H](O)c1ccc(OC2CC2)c(Cl)c1)C(=O)c1ccc(N2CCCC2)cc1` [Example 327, N-((1R,2R)-3-(azetidin-1-yl)-1-(3-chloro-4-cyclopropoxyphenyl)-1-hydroxypropan-2-yl)-2-oxo-2-(4-(pyrrolidin-1-yl)phenyl)acetamide], the IC50 is under 50 nM. Next, `O=C(N[C@H](CN1CCCC1)[C@H](O)c1ccc(OC2CC2)c(Cl)c1)C(F)(F)CCc1ccc2cc(Cl)ccc2c1` [Example 328, N-((1R,2R)-1-(3-chloro-4-cyclopropoxyphenyl)-1-hydroxy-3-(pyrrolidin-1-yl)propan-2-yl)-4-(6-chloronaphthalen-2-yl)-2,2-difluorobutanamide]: under 50 nM. Next, `C=COc1ccc([C@@H](O)[C@@H](CN2CCCC2)NC(=O)C(=O)c2ccc(-c3ccc(F)cc3)cc2)cc1Cl` [Example 329, N-((1R,2R)-1-(3-chloro-4-(vinyloxy)phenyl)-1-hydroxy-3-(pyrrolidin-1-yl)propan-2-yl)-2-(4′-fluoro-[1,1′-biphenyl]-4-yl)-2-oxoacetamide]: under 50 nM; `CC(C)n1cc(-c2ccc(C(=O)C(=O)N[C@H](CN3CCCC3)[C@H](O)c3cc(F)c4c(c3)OCCO4)cc2)cn1` [Example 330, N-((1R,2R)-1-(8-fluoro-2,3-dihydrobenzo[b][1,4]dioxin-6-yl)-1-hydroxy-3-(pyrrolidin-1-yl)propan-2-yl)-2-(4-(1-isopropyl-1H-pyrazol-4-yl)phenyl)-2-oxoacetamide]: under 50 nM. Then `CC(C)n1ccc2ccc(C(=O)C(=O)N[C@H](CN3CCCC3)[C@H](O)c3cc(F)c4c(c3)OCCO4)cc21` [Example 331, N-((1R,2R)-1-(8-fluoro-2,3-dihydrobenzo[b][1,4]dioxin-6-yl)-1-hydroxy-3-(pyrrolidin-1-yl)propan-2-yl)-2-(1-isopropyl-1H-indo1-6-yl)-2-oxoacetamide], with under 50 nM.

In the case of `CC(C)n1ccc2ccc(C(=O)C(=O)N[C@H](CN3CCCC3)[C@H](O)c3ccc(OC4CC4)c(Cl)c3)cc21` [Example 332, N-((1R,2R)-1-(3-chloro-4-cyclopropoxyphenyl)-1-hydroxy-3-(pyrrolidin-1-yl)propan-2-yl)-2-(1-isopropyl-1H-indo1-6-yl)-2-oxoacetamide], the 50% inhibitory concentration (IC50) is under 50 nM. Next, `O=C(N[C@H](CN1CCCC1)[C@H](O)c1ccc(OC2CC2)cc1)C(=O)c1ccc(-c2ccc(F)cc2)cc1` [Example 333, N-((1R,2R)-1-(4-cyclopropoxyphenyl)-1-hydroxy-3-(pyrrolidin-1-yl)propan-2-yl)-2-(4′-fluoro-[1,1′-biphenyl]-4-yl)-2-oxoacetamide]: under 50 nM; `Cc1nn(C(C)C)c2cc(-c3ccc(C(=O)C(=O)N[C@H](CN4CCCC4)[C@H](O)c4ccc(OC5CC5)c(Cl)c4)cc3)ccc12` [Example 334, N-((1R,2R)-1-(3-chloro-4-cyclopropoxyphenyl)-1-hydroxy-3-(pyrrolidin-1-yl)propan-2-yl)-2-(4-(1-isopropyl-3-methyl-1H-indazol-6-yl)phenyl)-2-oxoacetamide]: under 50 nM. For the molecule `Cc1c2ccc(-c3ccc(C(=O)C(=O)N[C@H](CN4CCCC4)[C@H](O)c4cc(F)c5c(c4)OCCO5)cc3)cc2nn1C(C)C` [Example 335, N-((1R,2R)-1-(8-fluoro-2,3-dihydrobenzo[b][1,4]dioxin-6-yl)-1-hydroxy-3-(pyrrolidin-1-yl)propan-2-yl)-2-(4-(2-isopropyl-3-methyl-2H-indazol-6-yl)phenyl)-2-oxoacetamide], the IC50 is under 50 nM. Turning to `Cc1c2ccc(-c3ccc(C(=O)C(=O)N[C@H](CN4CCCC4)[C@H](O)c4ccc(OC5CC5)c(Cl)c4)cc3)cc2nn1C(C)C` [Example 336, N-((1R,2R)-1-(3-chloro-4-cyclopropoxyphenyl)-1-hydroxy-3-(pyrrolidin-1-yl)propan-2-yl)-2-(4-(2-isopropyl-3-methyl-2H-indazol-6-yl)phenyl)-2-oxoacetamide], the IC50 was under 50 nM. Then `Cc1nn(C(C)C)c2cc(-c3ccc(C(=O)C(=O)N[C@H](CN4CCCC4)[C@H](O)c4cc(F)c5c(c4)OCCO5)cc3)ccc12` [Example 337, N-((1R,2R)-1-(8-fluoro-2,3-dihydrobenzo[b][1,4]dioxin-6-yl)-1-hydroxy-3-(pyrrolidin-1-yl)propan-2-yl)-2-(4-(1-isopropyl-3-methyl-1H-indazol-6-yl)phenyl)-2-oxoacetamide], with under 50 nM; and `O=C(N[C@H](CN1CCC1)[C@H](O)c1ccc(OC2CC2)c(Cl)c1)C(=O)c1cc2ccc(Cl)cc2s1` [Example 338, N-((1R,2R)-3-(azetidin-1-yl)-1-(3-chloro-4-cyclopropoxyphenyl)-1-hydroxypropan-2-yl)-2-(6-chlorobenzo[b]thiophen-2-yl)-2-oxoacetamide], with under 50 nM. Then `CC(C)c1ccc(-c2ccc(C(=O)C(=O)N[C@H](CN3CCCC3)[C@H](O)c3ccc(OC4CC4)c(Cl)c3)cc2)cc1` [Example 339, N-((1R,2R)-1-(3-chloro-4-cyclopropoxyphenyl)-1-hydroxy-3-(pyrrolidin-1-yl)propan-2-yl)-2-(4′-isopropyl-[1,1′-biphenyl]-4-yl)-2-oxoacetamide], with under 50 nM.

The values are drawn from patent publication US10227323B2, “Glucosylceramide synthase inhibitors for the treatment of diseases” (BIOMARIN PHARMACEUTICAL INC., priority 2013, dated 2019).
